Series [1] has as its target T1, human complement 5a receptor (C5aR) (Homo sapiens, UniProt P21730).
T1 construct: 10x His (N); FLAG (N); StrepII (C); made in house; host or cells: Sf9 insect cells (recombinant baculovirus, pOET5 / flashBAC); membrane preparation
T1 sequence (P21730 1-350): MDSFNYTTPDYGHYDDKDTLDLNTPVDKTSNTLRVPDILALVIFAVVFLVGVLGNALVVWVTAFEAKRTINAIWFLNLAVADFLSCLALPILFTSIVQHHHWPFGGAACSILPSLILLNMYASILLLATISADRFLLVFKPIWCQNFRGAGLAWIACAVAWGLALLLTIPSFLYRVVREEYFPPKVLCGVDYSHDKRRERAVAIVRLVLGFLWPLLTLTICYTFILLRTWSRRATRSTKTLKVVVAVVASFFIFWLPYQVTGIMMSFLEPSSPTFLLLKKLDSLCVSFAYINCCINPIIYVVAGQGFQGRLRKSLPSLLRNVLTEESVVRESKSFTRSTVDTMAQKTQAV
The series is described as follows: Competition binding against [^3H]‐C5a^CF at C5aR in Sf9 membranes. Particulars: read-out: KI (inhibition constant). The text has this: The complement 5a receptor was coproduced with Gαi2 in Sf9 insect cells. The cDNA encoding the human complement 5a receptor flanked by an N‐terminal 10x His and FLAG tag and a C‐terminal StrepII tag was cloned into the pOET5 transfer vector (Oxford Expression Technologies, Oxford, UK). pOET5 contains two expression cassettes, the receptor is expressed under the control of a polyhedron promoter; Gαi2 expression is regulated by a p10 promoter. Recombinant baculoviruses were generated with the flashBAC protein expression system (Oxford Expression Technologies) according to manufacturer's instructions. […] Total membrane protein content was determined by the bicinchoninic acid (BCA) method using bovine serum albumin as the standard.
For the determination of binding parameters, membranes containing the respective receptors (10–50 μg total membrane protein) were incubated with cell‐free synthesized tritium‐labelled ligands in varying concentrations. Binding was terminated by rapid filtration over glass fibre filters pretreated with 0.3% polyethyleneimine using a Brandel harvester (Brandel, Alpha Biotech Ltd, Killearn, UK) and analysed by liquid scintillation counting. […]
Data are represented as means ± SEM from three or two independent experiments performed in triplicate and analysed in […] […]

Series [2] relates to C5aR. Particulars: literature comparison; cited from earlier work. From the text: Table 1 Binding parameters of cell‐free synthesized radioligands | column: Literature IC50 [nM]
Series [3] concerns the target endothelin receptors (Table 1: compared with ETBR). Particulars: determined with ^125I‐ET‐1 on receptors from native human tissues; literature comparison; cited from earlier work.
Series [4] can be described thus: Solubility/precipitation of cell‐free translated peptide in the reaction mix. Particulars: soluble vs pellet fraction. Format: physicochemical. The procedure: Complement 5a is flanked by an N‐terminal 6x His tag followed by a tobacco etch virus (TEV) cleavage site. […] Expression of both constructs is controlled by a T7 promoter. Cell‐free synthesis was accomplished using a homemade S30 extract from E. coli 6. The extract was prepared from the E. coli A19 strain, described in detail in 6. The T7 RNA polymerase was produced and purified as published 50. Cell‐free reactions were executed in continuous exchange mode by using different sizes of D‐Tube™ dialyzers (Merck Millipore) (mini for reactions containing labelled amino acids and maxi for reactions with unlabeled amino acids) and a 1 : 17 ratio between reaction (RM) and feeding mix (FM). Mini D‐tube™ dialyzers were placed into 2 mL tubes filled with feeding mix, maxi dialyzers into 50 mL tubes, respectively. […] Reactions were incubated at 30 °C, 100 rpm in an Infors Multitron shaker incubator (Infors, Bottmingen, Switzerland) overnight. Cell‐free reactions were analysed by SDS/PAGE using 10% Bis/Tris Novex NuPAGE gels (Life Technologies).

In series [5] the target is C5aR. Particulars: C5aR in native human tissues; literature comparison; cited from earlier work. The procedure:
Table 1 Binding parameters of cell‐free synthesized radioligands | column: Literature KD [nM] || As the interaction between C5a and its receptor is mainly mediated by the disulphide bridged core region of C5a (residues 21–55, 22) and the C‐terminal region (especially Arg^74 30) the N‐terminal hexa‐histidine tag was not removed. The cell‐free synthesized ligand binds to the complement 5a receptor with a dissociation constant of 1.18 ± 0.27 nM (Fig. 4A), which corresponds to values determined by Gerard and Gerard for C5aR in native human tissues (1 nM 31, Table 1). Competition experiments with the unlabelled small molecule inverse agonist NDT 9513727 and the peptide antagonist H2N‐ChaW resu ...

The mark [6] stands for this setting: with DsbA and reduced glutathione (GSH) replacing DTT.

Usually Ki stands for the equilibrium dissociation constant of an inhibitor or competing ligand from its target. Broadly, the IC50 is the midpoint of a concentration-inhibition curve. The Kd is a measure of binding affinity in units of concentration.

Several values for one entry are separate records, joined by “and”; a condition that tells them apart may be missing. Equal values may be shown once. Entries after “also recorded” stand apart in the source; their conditions may differ.

In the case of `CCCCn1c(-c2ccccc2)nc(-c2ccccc2)c1CN(Cc1ccc2c(c1)OCO2)Cc1ccc2c(c1)OCO2` [NDT 9513727, N,N‐Bis(1,3‐benzodioxol‐5‐ylmethyl)‐1‐butyl‐2,4‐diphenyl‐1H‐imidazole‐5‐methanamine], the Ki in series [1] is 169 nM and 54.5 nM. The IC50 in the series on C5aR [2] is 11.6 ± 1 nM. On to ^125I‐ET‐1: ^125I‐labelled endothelin‐1, for which the Kd in series [3] is 0.33 nM. For `CC[C@H](C)[C@H](NC(=O)[C@H](CC(=O)O)NC(=O)[C@H](CC(C)C)NC(=O)[C@H](Cc1cnc[nH]1)NC(=O)[C@@H]1CSSC[C@H](N)C(=O)N[C@@H](CO)C(=O)N[C@H]2CSSC[C@H](NC(=O)[C@H](CCC(=O)O)NC(=O)[C@H](CCCCN)NC(=O)[C@H](CC(=O)O)NC(=O)[C@H](CCSC)NC(=O)[C@H](CC(C)C)NC(=O)[C@H](CO)NC(=O)[C@H](CO)NC2=O)C(=O)N[C@@H](C(C)C)C(=O)N[C@@H](Cc2ccc(O)cc2)C(=O)N[C@@H](Cc2ccccc2)C(=O)N1)C(=O)N[C@H](C(=O)N[C@@H](Cc1c[nH]c2ccccc12)C(=O)O)[C@@H](C)CC` [Endothelin‐1, reference compound], the “Solubility/precipitation of cell‐free product” value was “strong precipitation; also recorded: heavy precipitation” in series [4] (reducing conditions (DTT), without DsbA, listed as ET‐1) and “did not display any precipitates” in series [4] (setting [6]).

B1: C5a^CF: cell‐free‐synthesized complement 5a containing the N‐terminal 6xHis tag and TEV cleavage site (protein, UniProt P01031 678-751, looked up)
C5a anaphylatoxin: TLQKKIEEIAAKYKHSVVKKCCYDGACVNNDETCEQRAARISLGPRCIKAFTECCVVASQLRANISHKDMQLGR
modifications: C5a anaphylatoxin N-terminal 6xHis tag and TEV site
notes: cell‐free‐synthesized complement 5a containing the N‐terminal 6xHis tag and TEV cleavage site
For B1, the “Solubility/precipitation of cell‐free product” value in series [4] (reducing conditions (DTT), without DsbA) is “strong precipitation; also recorded: insoluble and can only be detected in the pellet fraction; also recorded: heavy precipitation”; in series [4] (setting [6]), “did not display any precipitates; also recorded: can be detected in the soluble fraction”.

B2: ^125I‐C5a: commercially available ^125I‐C5a (protein, UniProt P01031 678-751, looked up)
C5a anaphylatoxin: B1 C5a anaphylatoxin
modifications: C5a anaphylatoxin 125I-labelled
notes: commercially available ^125I‐C5a
In the case of B2, the Kd on C5aR [5] is 1 nM.

The values above are taken from PMC4794788, “Cell‐free synthesis of isotopically labelled peptide ligands for the functional characterization of G protein‐coupled receptors” (FEBS Open Bio, 2015).
